From patent publication US9566265B2, “Carbazole compounds and therapeutic uses of the compounds” (Incuron, LLC, priority 2008, dated 2017)
pEC50, pIC50: −log10 of the molar value.

Experiments:
p53 = p53 activation assay, p53 responsive luciferase reporter cell line; format: cell-based, human; settings: Homo sapiens, 16 h, HT1080-L or RCC45ConALuc reporter cells, 16 h; read-out: EC50 value (p53 activation)
Description: The potency of a present carbazole compound is determined by measuring an ability of the compound to inhibit NF-κB activity or to activate p53. […] Theoretically, such assays of the dose-response effect of activator compounds can be described as a sigmoidal curve expressing a degree of activation as a function of concentration. The curve also theoretically passes through a point at which the concentration is sufficient to increase activity to a level that is 50% that of the difference between a baseline and the maximal activity in the assay. […] Determination of an EC50 value is made using conventional biochemical (acellular) assay techniques or cell-based assay techniques.
The potency of a carbazole compound is determined by measuring an ability of the compound to activate p53.
The p53 activation assay for determination of the EC50 value was performed as follows:
HT1080-L (human fibrosarcoma cells with ConALuc reporter)
RCC45ConALuc (human renal cell carcinoma cell line with ConALuc reporter)
1. Two types of standard cells were used, either HT1080-L or RCC45ConALuc cells. Both cell lines stably express a p53 responsive luciferase reporter construct.
2. HT1080-L cells were grown in DMEM medium containing 10% FBS. RCC45ConALuc cells were grown in RPMI medium containing 10% FBS (Pen/Strep can be added to a final concentration of 1%, if desired). Both cell lines were grown in a humidified incubator at 37° C. with 5% CO2. For normal culturing, both cell lines were split using 1× trypsin-EDTA at a ratio of 1:20 for HT1080-L and 1:5 for RCC45ConALuc cells every 3-4 days (when cells are 80-90% confluent).
3. A day before the experiment, the cells are trypsinized for about 5 minutes in 1× tripsin/EDTA solution in 37° C. incubator and plated in 96 well plates. HT1080-L cells were seeded at a density of 1×10^4/well in standard DMEM medium in a volume of 50 μl. RCC45ConALuc were seeded at a density of 2×10^4/well in the volume of 50 uL in standard RPMI medium.
4. The next day, various carbazole compounds were prepared by dilution of stock solutions in standard DMEM medium such that the cells were treated with the final chemical concentrations in Table 1 below. Stock solutions were made up in DMSO. Typically, chemicals were made up as 20 mM stock solutions.
5. Each tested compound used two rows of a 96-well plate, thus four compounds (e.g., W, X, Y, Z) were tested in one plate simultaneously. In addition to test compounds, each plate included positive and negative controls. As positive control, 9aa was used at a dose of 3 μM. As a negative control, DMSO was used in final concentration 0.1%.
1. Dilutions of chemicals added to the plate were made up as 2× concentrations in standard DMEM and added to corresponding well in a volume of 50 μl.
2. Chemicals were diluted in standard DMEM by two time serial dilutions starting from 40 μM (2× of highest concentration, e.g., 20 μM). For one cell line, the minimum volume was 125 μL of 2× working solution of chemical of each concentration in standard DMEM.
4. Sixteen hours following compound addition, all wells with the highest concentrations of compounds are checked microscopically for the presence of toxic effect, because death of cells caused by compounds may not allow detecting luciferase activity. If cytotoxocity is evident, other doses of the same compounds were checked for the presence of toxicity. The lowest dose causing toxic effect was recorded.
5. After microscopic examination, 15 μl of Bright Glo luciferase assay system were added to each well and after 5 min incubation at RT, the plates were read on a 96 well plate luminometer with a measurement time of 0.1 sec. A shaking step was included before measurement.
6. The folds of luciferase activation for each concentration of each chemical were calculated by dividing the detected luciferase activity at each chemical concentration by the average of the luciferase activity for the DMSO control on the same plate.

Bloodstream T. brucei = assay: T. brucei bloodstream form in vitro killing; format: cell-based, Trypanosoma brucei
Description: Preliminary T. brucei inactivation experiments were performed in vitro. The life cycle of T. brucei involves a “procyclic” developmental stage in a tsetse fly, and a “bloodstream” form in humans. All studies were performed with the bloodstream stage of the parasite, because it is the disease-causing developmental stage.
Suramin, a conventional anti-HAT drug, was used as a positive control.
Bloodstream T. brucei was seeded (3×10^3 cells/mL) in 24-well (500 uL of the media per well) plate. […] Control cultures received equal volumes of DMSO.

Bacillus subtilis = assay: antibacterial cytotoxicity assay, gram(+) bacteria (OD600); format: cell-based; settings: B. subtilis, 48 hours, over a range of potencies; FIG. 13B
Description: In vitro test to evaluate the effect of carbazole compounds on gram(-) and gram(+) bacteria. Two days prior to the start of the cytotoxicity assay, inoculate DH5-α and B. subtilis into 1 ml of corresponding media from glycerol stocks. Allow to grow during the course of the day at 37° C. with shaking. Streak each bacteria on the appropriate agar plates using a sterile inoculation loop and allow to grow overnight at 37° C. in the bacteria incubator. Using a sterile inoculation loop, pick a single colony of bacteria and inoculate 5 ml of the corresponding media in a 14 ml snap cap tube. Grow overnight ( 16 h) at 37° C. with shaking. […] Dilute 5 ml cultures of DH5-α and B. subtilis to an OD600 nm of 0.002, which corresponds to about 2×10^6 cells/ml in a volume sufficient for the experiment (dependent on the number of plates). Plate out 50 μl into each well of X 96-well plates (X=# plates needed for a given experiment). […] Chemicals for testing are prepared by dilution of stock solutions in LB Broth or Nutrient Broth for DH5-α and B. subtilis studies, respectively. Cells are treated with the final chemical concentrations presented in the scheme below (Table 2). Stock solutions are made up in DMSO. […] However, this concentration is dependent on the solubility of a given chemical and actual stock concentrations must be noted at time of experiment. Each library chemical to be tested requires 2 rows of a 96-well plate, thus 4 chemicals ([…]) can be tested in one plate simultaneously. In addition to test chemicals, each plate should include positive and negative controls. As positive control, ampicillin is used at 100 μg/ml. […] Dilutions of chemicals to be added to the plate are made up as 2× concentrations in appropriate bacteria media and added to corresponding wells in a volume of 50 μl. […] This process is repeated until all 10 2× doses are prepared. […] Following the addition of carbazole compounds to 96-well plates containing bacteria, plates are transferred to the 37° C. bacteria incubator for 48 hours. After the incubation, the OD600 mm for each well of the 96-well plates will be measured. […] The % DMSO control is plotted vs compound concentration to generate sigmoid shaped curves. After three runs are complete, the raw data for all three runs is used for IC50 calculations.

HB 101 E. coli = assay: antibacterial cytotoxicity assay, gram(−) bacteria (OD600); format: cell-based; settings: 48 hours, over a range of potencies, FIG. 13A
[1] = tested on: HCT-116, DLD1, Caki1 and MDA-MB-231 tumors; assay: various human tumour xenografts sc; format: in vivo, nude or SCID mice; settings: tumor cells inoculated as a cell suspension
Description: (§1) In this study, the antitumor effect and toxicity of the three carbazoles against HCT-8 and HT29 colon cancer tumors were compared with treatment beginning when the tumor size reached 150-200 mg (about 7 days after tumor transplantation).

[2] = tested on: human HCT-8 ileocecal adenocarcinoma xenografts
Description: as §1
(§2) Eight to twelve-week-old female athymic nude mice (nu/nu, body weight 22-25 g) were obtained from Harlan Sprague Dawley Inc. (Indianapolis, Ind.) and maintained at five mice/cage with water and food ad libitum according to an institutionally approved animal protocol.
(§3) Human ileocecal adenocarcinoma HCT-8 and colon adenocarcinoma HT-29 xenografts were used. The xenografts were initially established by injecting s.c 10^6 cultured cells and tumors were passed several generations by transplanting about 50 mg non-necrotic tumor (2-3 pieces) via a trocar from the passage tumors when the tumors reach to 1-1.5 g.
(§4) Treatment was initiated 7 days after tumor transplantation when the tumors reached 150-200 mg. The mice in the control group received the vehicle (0.2% hydroxypropylmethylcellulose) at 200 μl per 20 g mouse body weight (same as the treatment groups). Five mice were used for each experimental group with 10 tumors (1 tumor each in the left and right side flanks).
(§5) Two axes (mm) of tumor (L, longest axis; W, shortest axis) were measured with the aid of a Vernier caliper. Tumor weight (mg) was estimated using a formula: tumor weight=½ (L×W2). Tumor measurements were taken daily at the same time as drug treatment and 3-4 times a week of post therapy.
(§6) The kinetics of drug-induced toxicities (body weight loss, diarrhea, and lethality) were determined daily for the first 10 days after treatment and every two days thereafter.
(§7) Antitumor activity was assessed by maximum tumor growth inhibition (MTRI) which is the mean tumor weight of treated group (MTWTG) compared with untreated control group (MTWCG) at the same time point (MTRI=MTWTG−MTWCG)÷MTWCG×100%). The tumor doubling time (TDT) was defined as the mean time for the tumor to reach twice its initial weight. Tumor response was expressed as partial tumor response (PR) when tumor weight was reduced at least 50% of the initial tumor size and complete tumor response (CR) was defined as the inability to detect tumor upon palpation at the initial site of tumor appearance.

[3] = tested on: human HT-29 colon adenocarcinoma xenografts
Description: as §1, §2, §3, §4, §5, §6, §7

in vivo = settings: nude, mouse, po
Description: Drug doses and schedule. […] Treatment was initiated 7 days after tumor transplantation when the tumors reached 150-200 mg. The mice in the control group received the vehicle (0.2% hydroxypropylmethylcellulose) at 200 μl per 20 g mouse body weight (same as the treatment groups). Five mice were used for each experimental group with 10 tumors (1 tumor each in the left and right side flanks).
Maximum Tolerated Dose (MTD) and toxicity evaluation. […] The kinetics of drug-induced toxicities (body weight loss, diarrhea, and lethality) were determined daily for the first 10 days after treatment and every two days thereafter.

[4] = tested on: Caki1 human renal cell carcinoma cells; assay: Caki1 renal cell carcinoma xenograft efficacy test
Description: In an efficacy test using these three compounds, athymic nude mice were inoculated subcutaneously with a suspension of Caki1 human renal cell carcinoma cells into both rear flanks. When at least one tumor in a mouse reached 20-50 mm^3, treatment was commenced. […] As a positive control, one group was treated with 40 mg/kg Sunitinib, an approved drug for the treatment of renal cell carcinoma. Treatment was given for 4 weeks on a 5 day on/2 day off schedule. After treatment was completed, mice were monitored for an additional 4 weeks to determine how quickly tumor growth returned to normal.

γH2AX = γH2AX staining (Table I); format: cell-based
ATM/ATR = ATM/ATR activation (Table I); format: cell-based
Chk1/2 = Chk1/2 phosphorylation (Table I); format: cell-based
Topo II [5] = assay: Topo II inhibition in cells (Table I); format: cell-based
Topo II [6] = assay: Topo II inhibition in vitro (Table I); format: biochemical
[7] = tested on: thirteen cancer cell lines; assay: relative cell survival of cancer cell lines, methylene blue staining (FIG. 11); format: cell-based; settings: 24 hours treatment, then compound-free medium
Description: FIG. 11 contains plots of concentration of Compound 100 (μM) vs. relative cell survival for thirteen cancer cell lines showing that a present carbazole compound is an effective agent against numerous types of cancer;
Each of the cell lines presented in FIG. 11 was seeded into 96 well plates. The next day, cells were treated with a range of concentrations of Compound 100. Treatment occurred for 24 hours, at which time compound-filled medium was replaced with compound-free medium and cells were allowed to grow until the control wells, which were treated with only vehicle control (DMSO), reached a monolayer (typically within 48 hours). Cells then were fixed and stained with 0.5% methylene blue in 50% methanol. The dye was eluted with 1% SDS and the absorbance measured at 650 nm. Data is presented as the absorbance at 650 nm versus the concentration of Compound 100.

bacteria = assay: antibacterial cytotoxicity assay, comparison with ampicillin control; format: cell-based
Description: In particular, the effect of carbazole compounds of the present invention on gram positive (Bacillus subtilis) and gram negative (DH5-α) bacteria was determined by the following procedure, and is summarized in FIGS. 13A and 13B.
Each library chemical to be tested requires 2 rows of a 96-well plate, thus 4 chemicals (e.g. W, X, Y, Z) can be tested in one plate simultaneously. In addition to test chemicals, each plate should include positive and negative controls. As positive control, ampicillin is used at 100 μg/ml. As a negative control, DMSO is used in an amount equal to the highest volume of test compound used (˜0.25% DMSO for 50 μM).
Besides a positive control added in one concentration on each plate, the positive control of ampicillin is added to each assay run in a full concentration range (3 fold dilutions) to ensure proper and robust assay performance (estimated by comparison of dose response curves among runs).
The average OD600 nm of the test compound solutions are compared to that of the DMSO control by dividing the average OD600 nm of the test solution by that of the DMSO control and multiplying by 100 to produce the % DMSO control (i.e. % cytotoxicity). The % DMSO control is plotted vs compound concentration to generate sigmoid shaped curves. After three runs are complete, the raw data for all three runs is used for IC50 calculations.

[8] = p.o. at MTD, 5 days on/2 days off per week, Example 15 5, Example 7 30, Example 13 25 mg/kg/d

## CCCNCCCn1c2ccc(C(C)=O)cc2c2c3c(ccc21)C(=O)CC3 [Example 13]
p53
  pEC50: 6.66
Bloodstream T. brucei; 48 hrs, up to 200 nM Example 7, 20 nM Example 13, 3 nM Example 15
  elimination of parasites: completely eliminated T. brucei
Bloodstream T. brucei; Trypanosoma brucei, read-out: IC50 (concentration that killed 50% of the parasites), bloodstream stage, 48 hrs of culture
  pIC50: 7.96 to 8.22
Bacillus subtilis
  antibacterial effect: antibacterial effect
HB 101 E. coli
  antibacterial effect: antibacterial effect
[1]
  antitumor efficacy: antitumor efficacy
[2]; mouse, in vivo
  Toxicity (%) MWL: 8.5 ± 2.9%
[2]; [8]
  Antitumor Activity MTGI (%): 35.7 ± 20.0%
[2]; same
  Toxicity (%) lethality: 0%
[2]; same, complete tumor response
  CR (%): 0%
[2]; same, partial tumor response
  PR (%): 0%
[2]; same, tumor doubling time
  Antitumor Activity TDT: 5.6 ± 1.2 days
[2]; text b677
  delay of tumor growth compared to the vehicle control (double time 4.8 days): 17%
[3]
  delay of tumor growth (control double time 7.8 days): 50%
  inhibitory rate / tumor growth inhibition: 48%
[3]; [8]
  Antitumor Activity MTGI (%): 47.6 ± 6.7%
[3]; same
  Toxicity (%) lethality: 0%
[3]; same, complete tumor response
  CR (%): 0%
[3]; same, maximum weight loss of pretreatment body weight
  Toxicity (%) MWL: 4.4 ± 2.2%
[3]; same, partial tumor response
  PR (%): 0%
[3]; same, tumor doubling time
  Antitumor Activity TDT: 11.7 ± 1.2 days
In vivo
  MTD at 4 weeks: 25 mg/kg/day
[4]; Day 24 (end of treatment), oral gavage 5 day on/2 day off, Example 7 30, Example 15 5, Example 13 25, Sunitinib 40 mg/kg
  tumor growth inhibition compared to the vehicle control: 62%
[4]; oral, 4 weeks 5 day on/2 day off
  side effects: severest side effects

## COc1cccc2c1C(=O)c1c(O)c3c(c(O)c1C2=O)C[C@@](O)(C(=O)CO)C[C@@H]3O[C@H]1C[C@H](N)[C@H](O)[C@H](C)O1 [doxorubicin]
γH2AX
  γH2AX staining: yes
ATM/ATR
  ATM/ATR activation: yes
Chk1/2
  Chk1/2 phospho: yes
Topo II [5]
  Topo II inhibition in cells: yes
Topo II [6]
  Topo II inhibition in vitro: relegation
Ames test
  Ames test: negative

## CCN(CC)CCn1c2ccc([N+](=O)[O-])cc2c2cc([N+](=O)[O-])ccc21 [Compound 100]
p53
  pEC50: 5.89
γH2AX
  γH2AX staining: no
ATM/ATR
  ATM/ATR activation: no
Chk1/2
  Chk1/2 phospho: no
Topo II [5]
  Topo II inhibition in cells: no
Topo II [6]
  Topo II inhibition in vitro: ligation
[7]
  anti-cancer activity against tested cancer cells: significant anti-cancer activity
Ames test
  Ames test: negative

## CC(C)NCCn1c2ccc3c(c2c2c4c(ccc21)C(=O)CC4)CCC3=O [Example 17]
p53
  pEC50: 7.40
Bacillus subtilis
  antibacterial effect: antibacterial effect
HB 101 E. coli
  antibacterial effect: antibacterial effect
bacteria
  effectiveness against bacteria compared with the ampicillin control: more effective
